Read-outs that look alike come from different tables or passages of the source.
Molecular target: T1, human PRMT1 (Homo sapiens, UniProt Q99873)
T1 construct: GST-tagged PRMT1; made in house; host or cells: High Five insect cells (baculovirus)
Assay: biochemical
Text: General Materials. S-adenosylmethionine (SAM), S-adenosylhomocysteine (SAH), bicine, Tween20, dimethylsulfoxide (DMSO), bovine skin gelatin (BSG), and Tris(2-carboxyethyl)phosphine hydrochloride solution (TCEP) were purchased from Sigma-Aldrich at the highest level of purity possible. ^3H-SAM was purchase from American Radiolabeled Chemicals with a specific activity of 80 Ci/mmol. 384-well streptavidin Flashplates were purchased from PerkinElmer.
Substrates. Peptide representative of human histone H4 residues 36-50 was synthesized with an N-terminal linker-affinity tag motif and a C-terminal amide cap by 21st Century Biochemicals. The peptide was purified by high-performance liquid chromatography (HPLC) to greater than 95% purity and confirmed by liquid chromatography mass spectrometry (LC-MS). The sequence was Biot-Ahx-[…]-amide (SEQ ID NO.:1).
Molecular Biology: Full-length human PRMT1 isoform 1 (NM_001536.5) transcript clone was amplified from an HEK 293 cDNA library, incorporating flanking 5′ sequence encoding a FLAG tag ([…]) (SEQ ID NO.:2) fused directly to Met 1 of PRMT1. The amplified gene was subcloned into pFastBacI (Life Technologies) modified to encode an N-terminal GST tag and a TEV cleavage sequence
Protein Expression. Recombinant baculovirus were generated according to Bac-to-Bac kit instructions (Life Technologies). Protein over-expression was accomplished by infecting exponentially growing High Five insect cell culture at 1.5×10^6 cell/ml with 1:100 ratio of virus. Infections were carried out at 27° C. for 48 hours, harvested by centrifugation, and stored at −80° C. for purification.
Protein Purification. […] GST-tagged PRMT1 was eluted with 50 mM Tris, 2 mM glutathione, pH 7.8, dialysed in buffer A and concentrated to 1 mg/mL. The purity of recovered protein was 73%. Reference: Wasilko, D. J. and S. E. Lee: “TIPS: titerless infected-cells preservation and scale-up” Bioprocess J., 5 (2006), pp. 29-32.
General Procedure for PRMT1 Enzyme Assays on Peptide Substrates. The assays were all performed in a buffer consisting of 20 mM Bicine (pH=7.6), 1 mM TCEP, 0.005% BSG, and 0.002% Tween 20, prepared on the day of use. Compounds in 100% DMSO (1 ul) were spotted into a polypropylene 384-well V-bottom plates (Greiner) using a Platemate Plus outfitted with a 384-channel head (Thermo Scientific). DMSO (1 ul) was added to Columns 11, 12, 23, 24, rows A-H for the maximum signal control and 1 ul of SAH, a known product and inhibitor of PRMT1, was added to columns 11, 12, 23, 24, rows I-P for the minimum signal control. A cocktail (40 ul) containing the PRMT1 enzyme was added by Multidrop Combi (Thermo-Fisher). The compounds were allowed to incubate with PRMT1 for 30 min at room temperature, then a cocktail (10 ul) containing SAM and peptide was added to initiate the reaction (final volume=51 ul). The final concentrations of the components were as follows: PRMT1 was 0.5 nM, ^3H-SAM was 200 nM, non-radiolabeled SAM was 1.5 uM, peptide was 20 nM, SAH in the minimum signal control wells was 1 mM, and the DMSO concentration was 2%. The assays were stopped by the addition of non-radiolabeled SAM (10 ul) to a final concentration of 300 uM, which dilutes the ^3H-SAM to a level where its incorporation into the peptide substrate is no longer detectable. 50 ul of the reaction in the 384-well polypropylene plate was then transferred to a 384-well Flashplate and the biotinylated peptides were allowed to bind to the streptavidin surface for at least 1 hour before being washed once with 0.1% Tween20 in a Biotek EL×405 plate washer. The plates were then read in a PerkinElmer TopCount plate reader to measure the quantity of ^3H-labeled peptide bound to the Flashplate surface, measured as disintegrations per minute (dpm) or alternatively, referred to as counts per minute (cpm).
Where dpm=disintegrations per minute, cmpd=signal in assay well, and min and max are the respective minimum and maximum signal controls. […]

[1] = biochemical evaluation, peptide substrate, read-out: PRMT1 IC50
[2] = single experiment or average of multiple experiments, read-out: PRMT1 biochemical evaluation (numerical)

T1 sequence (Q99873 other isoform, or with tags, fused parts or gaps): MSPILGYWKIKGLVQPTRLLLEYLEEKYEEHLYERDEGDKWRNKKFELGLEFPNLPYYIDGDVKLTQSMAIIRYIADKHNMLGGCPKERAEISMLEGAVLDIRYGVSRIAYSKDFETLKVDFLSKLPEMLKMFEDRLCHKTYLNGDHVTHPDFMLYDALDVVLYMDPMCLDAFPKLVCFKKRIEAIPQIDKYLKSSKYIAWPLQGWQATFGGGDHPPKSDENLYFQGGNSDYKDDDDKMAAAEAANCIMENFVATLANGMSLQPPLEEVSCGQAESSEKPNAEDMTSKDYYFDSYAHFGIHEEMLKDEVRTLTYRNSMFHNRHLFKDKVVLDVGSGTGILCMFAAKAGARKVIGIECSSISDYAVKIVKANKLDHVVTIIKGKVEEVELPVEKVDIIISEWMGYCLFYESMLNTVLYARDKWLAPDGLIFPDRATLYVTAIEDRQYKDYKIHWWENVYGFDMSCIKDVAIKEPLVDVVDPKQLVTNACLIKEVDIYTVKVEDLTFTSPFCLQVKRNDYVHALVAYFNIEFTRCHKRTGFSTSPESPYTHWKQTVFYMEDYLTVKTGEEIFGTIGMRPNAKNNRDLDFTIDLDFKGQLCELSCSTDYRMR

SMILES	IC50 [1] [nM]	IC50 [2] [nM]
CN(CCN)Cc1n[nH]c2ccc(OCc3ccccc3)cc12 [Compound 1B]	< 100	3.59
CC(C)COc1ccc2[nH]nc(CN(C)CCN)c2c1 [Compound 2, N1-((5-iso-butoxy-1H-indazol-3-yl)methyl)-N1-methylethane-1,2-diamine]	< 100	21
CNCCN(C)Cc1nn(C)c2ccc(OCC(C)C)cc12 [Compound 3, N^1-((5-iso-butoxy-1-methyl-1H-indazol-3-yl)methyl)-N^1,N^2-dimethylethane-1,2-diamine]	< 100	56.2
CNCCN(C)Cc1n[nH]c2ccc(OCCOC)cc12 [Compound 5, N^1-((5-(2-methoxyethoxy)-1H-indazol-3-yl)methyl)-N^1,N^2-dimethylethane-1,2-diamine]	< 100	38.5
CNCCN(C)Cc1n[nH]c2ccc(OCCCOC)cc12 [Compound 6]	< 100	19
CNCCN(C)Cc1n[nH]c2ccc(OCCc3ccccc3)cc12 [Compound 7]	< 100	6.6
CNCCN(C)Cc1n[nH]c2ccc(OCCC(C)C)cc12 [Compound 8]	< 100	7.83
CNCCN(C)Cc1n[nH]c2ccc(OC(C)Cc3ccccc3)cc12 (stereo not shown) [Compound 9]	< 100	10.8
CNCCN(C)Cc1n[nH]c2ccc(Oc3ccccc3)cc12 [Compound 10, N^1,N^2-dimethyl-N^1-((5-phenoxy-1H-indazol-3-yl)methyl)ethane-1,2-diamine]	< 100	16.2
CNCCN(C)Cc1n[nH]c2ccc(OC3CCCC3)cc12 [Compound 11]	< 100	3.3
CNCCN(C)Cc1n[nH]c2ccc(OCc3ccccn3)cc12 [Compound 12]	< 100	27.2
CNCCN(C)Cc1n[nH]c2ccc(OCc3ccc(C#N)cc3)cc12 [Compound 13]	< 100	86.9
CNCCN(C)Cc1n[nH]c2ccc(OCc3cccc(C#N)c3)cc12 [Compound 14]	< 100	23.3
CNCCN(C)Cc1n[nH]c2ccc(OCc3cc[nH]n3)cc12 [Compound 17]	< 100	51.7
CNCCN(C)Cc1n[nH]c2ccc(OC3CCCCC3)cc12 [Compound 18]	< 100	40.2
CNCCN(C)Cc1n[nH]c2ccc(OCC(C)c3ccccc3)cc12 (stereo not shown) [Compound 19]	< 100	15.9
CNCCN(C)Cc1n[nH]c2ccc(OCc3ccn(C)n3)cc12 [Compound 20]	< 100	6.33
CNCCN(C)Cc1n[nH]c2cccc(OCc3ccccc3)c12 [Compound 21]	< 100	13.1
CNCCN(C)Cc1n[nH]c2ccc(Oc3cccc(OC)c3)cc12 [Compound 22]	< 100	11.9
CNCCN(C)Cc1n[nH]c2ccc(OCc3ccc(C(C)=O)cc3)cc12 [Compound 23]	< 100	12
CNCCN(C)Cc1n[nH]c2ccc(Oc3ccccc3OC)cc12 [Compound 24]	< 100	12.7
CNCCN(C)Cc1n[nH]c2ccc(OC3CCOC3)cc12 (stereo not shown) [Compound 25, N^1,N^2-dimethyl-N^1-((5-((tetrahydrofuran-3-yl)oxy)-1H-indazol-3-yl)methyl)ethane-1,2-diamine]	≤ 100	81.9

SMILES	IC50 [1] [nM]	IC50 [2] [nM]
CNCCN(C)Cc1n[nH]c2ccc(Oc3cccc(C)c3)cc12 [Compound 26]	< 100	44
CNCCN(C)Cc1n[nH]c2ccc(Oc3cccc(Cl)c3)cc12 [Compound 27, N^1-((5-(3-chlorophenoxy)-1H-indazol-3-yl)methyl)-N^1,N^2-dimethylethane-1,2-diamine]	< 100	31.6
CNCCN(C)Cc1n[nH]c2ccc(Oc3cccc(C#N)c3)cc12 [Compound 28]	< 100	22.5
CNCCN(C)Cc1n[nH]c2ccc(OC3CCOCC3)cc12 [Compound 29, N^1,N^2-dimethyl-N^1-((5-((tetrahydro-2H-pyran-4-yl)oxy)-1H-indazol-3-yl)methyl)ethane-1,2-diamine]	< 100	28.2
CNCCN(C)Cc1n[nH]c2ccc(Oc3ccccc3Cl)cc12 [Compound 30]	< 100	64.5
CNCCN(C)Cc1n[nH]c2cccc(OCCC(C)C)c12 [Compound 31]	≤ 100	46.5
CNCCN(C)Cc1nn(C)c2ccc(OCc3ccc(C#N)cc3)cc12 [Compound 32]	101 to 1000	73.9
CNCCN(C)Cc1n[nH]c2ccc(OCc3ccn(CC(C)C)n3)cc12 [Compound 33]	101 to 1000	44.5
CNCCN(C)Cc1c2cc(OCc3ccc(C#N)cc3)ccc2nn1C(C)C [Compound 34]	3010 to 10000	182
CNCCN(C)Cc1n[nH]c2ccc(OC)cc12 [Compound 35]	3010 to 10000	187
CNCCN(C)Cc1n[nH]c2ccc(O)cc12 [Compound 36, 3-((methyl(2-(methylamino)ethyl)amino)methyl)-1H-indazol-5-ol]	101 to 1000	6760
CNCCN(C)Cc1n[nH]c2ccc(Oc3ccc(C#N)cc3)cc12 [Compound 37]	1010 to 3000	6420
CNCCN(C)Cc1nn(C2CCN(C(C)=O)CC2)c2ccc(OCc3ccc(C#N)cc3)cc12 [Compound 38]	3010 to 10000	552
CNCCN(C)Cc1n[nH]c2ccc(Oc3ccc(C(F)(F)F)cc3)cc12 [Compound 39]	< 100	2270
CNCCN(C)Cc1n[nH]c2cccc(OCCC(O)CO)c12 (stereo not shown) [Compound 40]	101 to 1000	3910
CNCCN(C)Cc1n[nH]c2cccc(OCCCC(O)CO)c12 (stereo not shown) [Compound 41, 5-((3-((methyl(2-(methylamino)ethyl)amino)methyl)-1H-indazol-4-yl)oxy)pentane-1,2-diol]	101 to 1000	67.6
CNCCN(C)Cc1n[nH]c2ccc(C(C)C)cc12 [Compound 42, N^1-((5-isopropyl-1H-indazol-3-yl)methyl)-N^1,N^2-dimethylethane-1,2-diamine]	≤ 100	774
CNCCN(C)Cc1n[nH]c2ccc(N3CCC4(CCCCC4)CC3)cc12 [Compound 43, N^1-((5-(3-azaspiro[5.5]undecan-3-yl)-1H-indazol-3-yl)methyl)-N^1,N^2-dimethylethane-1,2-diamine]	< 100	434
CNCCN(C)Cc1n[nH]c2ccc(C3CCOCC3)cc12 [Compound 44, N^1,N^2-dimethyl-N^1-((5-(tetrahydro-2H-pyran-4-yl)-1H-indazol-3-yl)methyl)ethane-1,2-diamine]	< 100	43.6
CNCCN(C)Cc1n[nH]c2ccc(C3=CCOCC3)cc12 [Compound 45]	< 100	37.4
CNCCN(C)Cc1n[nH]c2ccc(N3CCCCC3)cc12 [Compound 46, N^1,N^2-dimethyl-N^1-((5-(piperidin-1-yl)-1H-indazol-3-yl)methyl)ethane-1,2-diamine]	< 100	21.2
CNCCN(C)Cc1n[nH]c2ccc(C3CCCCC3)cc12 [Compound 47, N^1-((5-cyclohexyl-1H-indazol-3-yl)methyl)-N^1,N^2-dimethylethane-1,2-diamine]	≤ 100	55.5
